# Measurements as given in patent US8501442B2, “Determination of 5-ASA efficacy in CRC prevention and/or treatment by gene expression analysis” (Sofar SpA, priority 2009, dated 2013).
# Legend:
# Assay type in all cases: cell-based
# [1] = tested on: β-catenin signalling pathway genes in HT29 colon adenocarcinoma cell line; assay: QRT-PCR analysis of β-catenin signalling pathway genes in HT29 cells; conditions: 20 mM 5-ASA, 96 h
# Procedure: These findings were also confirmed in another colon adenocarcinoma cell line, named HT29, under the same experimental conditions.
# FIG. 5. Biological effects determined by treatment with 5-ASA on the HT29 colon adenocarcinoma cell line. The mRNA expression variations of gene belonging to the β-catenin signalling pathway were analyzed in HT29 cells using the QRT-PCR reaction under the experimental conditions described in Results and in FIG. 1.
# Total RNA was extracted from cell suspensions and frozen tissues by means of the Qiagen total RNA purification kit as recommended by the manufacturer (Qiagen, Valencia, Calif.). RNA integrity and concentration were verified using the Bio-Analyzer technique (Applied Biosystem, Foster City, Calif.). 100 ng of total RNA were reverse transcribed using the High Capacity cDNA Archive Kit (Applied Biosystems) according to the manufacturer's instructions. QRT-PCR was performed with an ABI PRISM 7900 sequence detection system (Applied Biosystems) to quantify the relative levels of mRNA in the samples. […] Evaluation of QRT-PCR signals was performed using the ΔΔCt relative quantitation method. […] The values obtained were expressed in terms of relative quantity (RQ) of mRNA level variation.
# [2] = tested on: μ-protocadherin/β-catenin protein complex in CaCo2 cells; assay: Coimmunoprecipitation analysis of μ-protocadherin/β-catenin protein interaction in CaCo2 cells; conditions: lysates of CaCo2 cells, 20 mM 5-ASA for 96 h
# Procedure: The hypothesis arising from our data would directly imply that μ-protocadherin, as other proteins belonging to the cadherin superfamily, is able to bind β-catenin on the plasmatic membrane. To verify this interaction we performed co-immunoprecipitation experiments in which β-catenin was immunoprecipitated from lysates of CaCo2 cells treated with 20 mM 5-ASA for 96 h using a specific antibody and the immunoprecipitate was subsequently analyzed by Western blot carried out with a distinct antibody able to detect μ-protocadherin. […] FIG. 4. Coimmunoprecipitation analysis of μ-protocadherin/β-catenin protein interaction. […] Western blot analysis of μ-protocadherin expression was performed in cell lysates of control untreated and 5-ASA treated CaCo2 cells (Input, left panel), immunoprecipitates obtained by the same cells using normal control IgG (middle panel) and immunoprecipitates obtained by the same cells using an anti-β-catenin antibody (right panel). IP, immunoprecipitation; WB, Western blot; Ab antibody.
# [3] = tested on: β-catenin protein in CaCo2 cells; assay: Immunofluorescence assay of sub-cellular distribution of β-catenin in CaCo2 cells; conditions: 20 mM 5-ASA, after 96 h of culture
# Procedure: Due to the particular regulation mechanisms controlling the β-catenin signalling pathway, levels of β-catenin protein observed in the different subcellular compartments represent reliable indicators of the extent of its activation. Based on this premise we performed an immunofluorescence assay to assess the sub-cellular distribution of β-catenin protein in CaCo2 cells undergoing treatment with 20 mM 5-ASA. […] FIG. 3. Immunofluorescence analysis of β-catenin protein on CaCo2 cells exposed to 5-ASA treatment. Cells were stimulated with 5-ASA as explained in Results and subsequently stained with an anti-β-catenin primary antibody and a FITC conjugated secondary antibody (green fluorescence). Untreated control cells (CONT.) were also analyzed. Nuclei were counterstained with DAPI (blue fluorescence). Merge images, of the two analyzed fluorescence signals, are also shown.
# [4] = tested on: β-catenin signalling pathway genes in CaCo2 colon adenocarcinoma cells; assay: QRT-PCR analysis of genes regulating the β-catenin signalling pathway in CaCo2 cells; conditions: 20 mM 5-ASA
# Procedure: (§1) To investigate the molecular mechanisms underlying this effect we performed a microarray analysis, using the Affimetrix methodology, in order to assess the transcriptome changes determined on CaCo2 cells by treatment with 20 mM 5-ASA for 96 h. […] This gene codes for a member of the cadherin superfamily and, based on previous reports by other authors, appeared as a putative inhibitor of the β-catenin signalling pathway, i.e. a cell proliferation pathway mediated by the activity of the β-catenin transcription factor^16,17. The relevance of this finding resides in the observation that the β-catenin signalling pathway is constitutively activated in CRC. […] Up-regulation of mRNA expression resulted to be 12-fold for μ-protocadherin, 16-fold for p21^waf-1, 4 to 6-fold for KLF4 and CEBPα and 2 to 3-fold Axin 1 and ICAT. […] The up-regulation of these genes appeared also more pronounced at the end of stimulation (96 h). mRNA expression of E-cadherin and β-catenin appeared, conversely, unaffected (FIG. 1).
# FIG. 1. QRT-PCR analysis of genes belonging to the β-catenin signalling pathway in CaCo2 cells treated with 5-ASA. Cells under the experimental conditions described in Results were analyzed by QRT-PCR to estimate the mRNA expression of genes belonging to the β-catenin signalling pathway, all indicated on y-axis. The effect determined by 5-ASA treatment on the mRNA expression of KLF4 and CEBPα onco-suppressor genes is also shown.
# Total RNA was extracted from cell suspensions and frozen tissues by means of the Qiagen total RNA purification kit as recommended by the manufacturer (Qiagen, Valencia, Calif.). RNA integrity and concentration were verified using the Bio-Analyzer technique (Applied Biosystem, Foster City, Calif.). 100 ng of total RNA were reverse transcribed using the High Capacity cDNA Archive Kit (Applied Biosystems) according to the manufacturer's instructions. QRT-PCR was performed with an ABI PRISM 7900 sequence detection system (Applied Biosystems) to quantify the relative levels of mRNA in the samples. Primers and probes for mRNA amplification of μ-protocadherin, E-cadherin, β-catenin, Axin-1, Inhibitor of β-Catenin and TCF-4 (ICAT), p21^waf-1, KLF4, CEBPα, and glyceraldehyde-3-phosphate dehydrogenase (GAPDH) were designed by Applied Biosystems. Each cDNA sample was run in triplicate in 50 μl reaction volume using Taqman Universal PCR Master Mix (Applied Biosystems). Thermal cycling was started with an initial denaturation at 50° C. for 2 min and 95° C. for 10 min, followed by 40 thermal cycles of 15 sec at 95° C. and 1 min at 60° C. Evaluation of QRT-PCR signals was performed using the ΔΔCt relative quantitation method. […] The values obtained were expressed in terms of relative quantity (RQ) of mRNA level variation.
# [5] = tested on: onco-suppressor genes in CaCo2 cells; assay: Affimetrix microarray analysis of transcriptome changes in CaCo2 cells; conditions: 20 mM 5-ASA for 96 h
# Procedure: as §1
# [6] = tested on: CaCo2 cells; assay: Proliferation of CaCo2 cells under 5-ASA treatment (preliminary experiments)
# [7] = tested on: μ-protocadherin protein in CaCo2 cells; assay: Time course Western blot of μ-protocadherin protein expression in CaCo2 cells; conditions: 20 mM 5-ASA for up to 96 h, 24 h intervals
# Procedure: To confirm μ-protocadherin induction we performed a time course Western blot analysis on CaCo2 cells undergoing exposure to 20 mM 5-ASA for up to 96 h. […] FIG. 2. Results of a time course Western blot analysis evaluating the expression of μ-protocadherin protein in CaCo2 cells treated with 5-ASA. This analysis was performed on cytoplasmic extracts of studied cells, at 24 h intervals following treatment with 5-ASA. Analyzed cell samples are indicated on the top. Normalization of the protein amount loaded in each lane was achieved using a pan-actin antibody able to detect either cytoplasmic or nuclear actin.
# [8] = 48 and 96 h (more pronounced at 96 h)
structure (smiles),measurement,setting,value
"Nc1ccc(O)c(C(=O)O)c1 [5-ASA, 5 aminosalicylic acid]",induction of p21^waf-1 mRNA expression,[1],5 fold
same,induction of μ-protocadherin mRNA expression,[1],3 fold
same,μ-protocadherin bands (93 and 110 kDa) in β-catenin immunoprecipitate,[2],interacting with β-catenin
same,sub-cellular localization of β-catenin signal,[3],almost exclusively localized in the plasmatic membrane
same,mRNA expression of E-cadherin,[4]; 48 and 96 h,unaffected
same,mRNA expression of β-catenin,[4]; 48 and 96 h,unaffected
same,up-regulation of p21^waf-1 mRNA expression,[4]; [8],16 fold
same,up-regulation of μ-protocadherin mRNA expression,[4]; [8],12 fold
same,"expression of onco-suppressor genes (μ-protocadherin, KLF4, CEBPα) by microarray",[5],up-regulated expression
same,proliferation activity of CaCo2 cells,[6],inhibits the proliferation activity
same,μ-protocadherin protein expression in cytoplasmic extract (Western blot),[7],gradually but remarkably induced
